Reference: patent US20100216994A1, “USE OF NOVEL COMPOUND HAVING AFFINITY FOR AMYLOID, AND PROCESS FOR PRODUCTION OF THE SAME” (NIHON MEDI-PHYSICS CO., LTD., priority 2007, published 2010)
Where two headings read alike, the source gives them in different places.

How the values were obtained:
[1] = [^125I]-labeled compounds, normal mice, brain; cited from earlier work
[2] = molecular target: T1, intracerebral amyloid (aggregated Aβ1-42) (Homo sapiens, UniProt P05067); experiment: Confirmation of imaging of amyloid in brain (autoradiogram of brain slice, amyloid injected into amygdaloid nucleus); format: in vivo, male Wistar rat; settings: rat, tail vein injection, brain removed 60 minutes after injection
T1 construct: Aβ1-42 (Wako) was dissolved in phosphate buffer (pH 7.4); purchased Wako
T1 sequence (P05067 672-713): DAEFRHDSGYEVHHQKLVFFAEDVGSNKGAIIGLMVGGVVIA
Protocol: (§1) The following experiment was carried out in order to examine whether amyloid in brain can be imaged by the compound of the present invention.
(§2) (1) Aβ1-42 (Wako) was dissolved in phosphate buffer (pH 7.4) and shaken at 37° C. for 72 hours, to obtain a 1 mg/mL suspension of aggregated Aβ (hereinafter referred to as amyloid suspension in this Example).
(§3) (2) Under thiopental anesthesia, […] of the amyloid suspension was injected into an amygdaloid nucleus on one side of a male Wistar rat (7-week old). As a control, 2.5 μL of a phosphate buffered physiological saline solution (pH 7.4) was injected into an amygdaloid nucleus on the other side of the rat. The rats were examined 1 day after the injection of the amyloid suspension and the phosphate buffered physiological saline solution (pH 7.4).
(§4) This sample solution was injected under thiopental anesthesia into the rat through the tail vein (dosage: 0.5 mL, dosed radioactivity: 16 MBq equivalent).
(§5) (4) Brain was removed 60 minutes after the injection to prepare a brain slice of 10 μm in thickness with a microtome (type: CM3050S, manufactured by LEICA). The brain slice was exposed to an imaging plate for 20 hours, and then image analysis was carried out by use of a Bio-imaging Analyzer (type: BAS-2500; manufactured by FUJIFILM Corporation).

[3] = tested on: intracerebral amyloid (aggregated Aβ1-42); experiment: as above; format: in vivo, male Wistar rat; settings: rat, tail vein injection, brain removed 60 minutes after injection
Protocol: as §1, §2, §3, §4, §5

[4] = Partition coefficient based on the octanol extraction method (logPoctanol); settings: octanol / 10 mmol/L phosphate buffer (pH 7.4)
[5] = Transferability into brain and clearance (radioactive accumulation in brain after intravenous injection); settings: rats
Protocol: Using [^123I]-2-(4′-iodophenyl)-6-methoxyimidazo[1,2-a]pyridine and [^123I]-2-(4′-fluorophenyl)-6-iodoimidazo[1,2-a]pyridine, a time course change of radioactive accumulation in brain of male Wistar rats (7-week old) was measured.
The rats were sacrificed by bleeding from abdominal artery, and brains were removed and subjected to measurement of mass of brains (hereinafter referred to as A in this Example) and further subjected to measurement of radioactivity with a single channel analyzer (detector type: SP-20 manufactured by OHYO KOKEN KOGYO Co., Ltd.) 2, 5, 30 and 60 minutes after the injection. Also, radioactivity (hereinafter referred to as B in this Example) of the rest of the whole body was measured in the same manner as above.
The same procedures as above was conducted and subjected to the same procedures as above to calculate radioactive accumulation per unit weight of a brain (% ID/g) at the respective time points were calculated.
Three animals were used for Example 15, Example 16 and Comparative Example 2 at the respective time points.

[6] = SD rat; for radioactive distribution per unit weight, Adrenal gland, Average / radioactive distribution per unit weight, Blood, Average / radioactive distribution per unit weight, Bone, Average / radioactive distribution per unit weight, Brain, Average / radioactive distribution per unit weight, Heart, Average / radioactive distribution per unit weight, Kidney, Average / radioactive distribution per unit weight, Large intestine, Average / radioactive distribution per unit weight, Liver, Average / radioactive distribution per unit weight, Lung, Average / radioactive distribution per unit weight, Marrow, Average / radioactive distribution per unit weight, Muscle, Average / radioactive distribution per unit weight, Pancreas, Average / radioactive distribution per unit weight, Small intestine, Average / radioactive distribution per unit weight, Spleen, Average / radioactive distribution per unit weight, Stomach, Average: tail vein
Protocol: 0.2 mL each of the prepared sample solution was administered under non-thiopental anesthesia into the tail vein of the above rat. The rats were sacrificed by bleeding from abdominal artery, and each organ shown in Table 4 was removed 5, 30, 60 and 180 minutes after the administration. Each removed organ was subjected to measurement of mass and radioactivity with the same method as in Example 15. Also, radioactivity of the whole body of the rat after removal of the organs (hereinafter, refers to rest of the whole body) was measured. Using these measurement results, radioactive distribution per unit weight of each organ (% ID/g) at the respective time points was calculated in accordance with the following formula (4).
Three animals were used for the experiment at the respective time points.
R^T: Radioactivity of target organ (cpm) RS: Sum of radioactivity of all the organs (cpm)
R^R: Radioactivity of the rest of the whole body (cpm)
M^T: Mass of target organ (g)

In the case of `CN(C)c1ccc(-c2nc3ccc(I)cc3o2)cc1` [IBOX, 6-iodo-2-[4′-(N,N-dimethylamino)phenyl]benzoxazole], the “clearance from normal tissues” value [1] is given as “insufficient in clearance from normal tissues”.

For `CN(C)c1ccc(-c2nc3ccc(I)cc3s2)cc1` [TZDM, 6-iodo-2-[4′-(N,N-dimethylamino)phenyl]benzothiazole], the “clearance from normal tissues” value [1] is listed as “insufficient in clearance from normal tissues”.

For `Fc1ccc(-c2cn3cc([123I])ccc3n2)cc1` [[^123I]-2-(4′-fluorophenyl)-6-iodoimidazo[1,2-a]pyridine], the “accumulation of radioactivity in amygdaloid nucleus on the side to which the amyloid suspension was injected” value [2] was “marked accumulation of radioactivity”, the “accumulation of radioactivity in amygdaloid nucleus on the side to which the physiological saline solution was injected” value [3] was “no significant accumulation of radioactivity” and the logPoctanol value [4] was 2.3. The “Radioactive accumulation per unit weight in brain” value ([5]; after 2 min.) was 1.00 % ID/g, the “Radioactive accumulation per unit weight in brain” value ([5]; after 5 min.) was 0.72 % ID/g and the “Radioactive accumulation per unit weight in brain” value ([5]; after 30 min.) was 0.12 % ID/g. The “Radioactive accumulation per unit weight in brain” value ([5]; after 60 min.) was 0.05 % ID/g.

With `COc1ccc2nc(-c3ccc([123I])cc3)cn2c1` [[^123I]-2-(4′-iodophenyl)-6-methoxyimidazo[1,2-a]pyridine] the “ratio (% ID/g at 5 minutes after the administration)/(% ID/g at 180 minutes after the administration), bone” value ([6]; bone) was 3, the “ratio (% ID/g at 5 minutes after the administration)/(% ID/g at 180 minutes after the administration), brain” value ([6]; brain) was 43 and the “excretion / clearance to the outside of the body” value ([6]; distribution moved from small intestine to large intestine) was “biliary-excreted rapidly after the administration”. The “ratio (% ID/g at 5 minutes after the administration)/(% ID/g at 180 minutes after the administration), heart” value ([6]; heart) was 12, the “ratio (% ID/g at 5 minutes after the administration)/(% ID/g at 180 minutes after the administration), lung” value ([6]; lung) was 7 and the “ratio (% ID/g at 5 minutes after the administration)/(% ID/g at 180 minutes after the administration), pancreas” value ([6]; pancreas) was 8. The “radioactive distribution per unit weight, Adrenal gland, Average” value ([6]; 5 min. after administration) was 5.163 % ID/g, the “radioactive distribution per unit weight, Blood, Average” value ([6]; 5 min. after administration) was 0.290 % ID/g and the “radioactive distribution per unit weight, Bone, Average” value ([6]; 5 min. after administration) was 0.223 % ID/g. The “radioactive distribution per unit weight, Brain, Average” value ([6]; 5 min. after administration) was 1.175 % ID/g, the “radioactive distribution per unit weight, Heart, Average” value ([6]; 5 min. after administration) was 0.752 % ID/g and the “radioactive distribution per unit weight, Kidney, Average” value ([6]; 5 min. after administration) was 1.434 % ID/g. The “radioactive distribution per unit weight, Large intestine, Average” value ([6]; 5 min. after administration) was 0.122 % ID/g, the “radioactive distribution per unit weight, Liver, Average” value ([6]; 5 min. after administration) was 1.857 % ID/g and the “radioactive distribution per unit weight, Lung, Average” value ([6]; 5 min. after administration) was 1.109 % ID/g. For the same compound, the “radioactive distribution per unit weight, Marrow, Average” value ([6]; 5 min. after administration) was 0.937 % ID/g, the “radioactive distribution per unit weight, Muscle, Average” value ([6]; 5 min. after administration) was 0.344 % ID/g and the “radioactive distribution per unit weight, Pancreas, Average” value ([6]; 5 min. after administration) was 0.709 % ID/g. For the same compound, the “radioactive distribution per unit weight, Small intestine, Average” value ([6]; 5 min. after administration) was 0.729 % ID/g, the “radioactive distribution per unit weight, Spleen, Average” value ([6]; 5 min. after administration) was 0.460 % ID/g and the “radioactive distribution per unit weight, Stomach, Average” value ([6]; 5 min. after administration) was 0.203 % ID/g. The “radioactive distribution per unit weight, Adrenal gland, Average” value ([6]; 30 min. after administration) was 2.364 % ID/g, the “radioactive distribution per unit weight, Blood, Average” value ([6]; 30 min. after administration) was 0.240 % ID/g and the “radioactive distribution per unit weight, Bone, Average” value ([6]; 30 min. after administration) was 0.136 % ID/g. For the same compound, the “radioactive distribution per unit weight, Brain, Average” value ([6]; 30 min. after administration) was 0.220 % ID/g, the “radioactive distribution per unit weight, Heart, Average” value ([6]; 30 min. after administration) was 0.220 % ID/g and the “radioactive distribution per unit weight, Kidney, Average” value ([6]; 30 min. after administration) was 2.102 % ID/g. For the same compound, the “radioactive distribution per unit weight, Large intestine, Average” value ([6]; 30 min. after administration) was 0.096 % ID/g, the “radioactive distribution per unit weight, Liver, Average” value ([6]; 30 min. after administration) was 1.197 % ID/g and the “radioactive distribution per unit weight, Lung, Average” value ([6]; 30 min. after administration) was 0.410 % ID/g. The “radioactive distribution per unit weight, Marrow, Average” value ([6]; 30 min. after administration) was 0.285 % ID/g, the “radioactive distribution per unit weight, Muscle, Average” value ([6]; 30 min. after administration) was 0.092 % ID/g and the “radioactive distribution per unit weight, Pancreas, Average” value ([6]; 30 min. after administration) was 0.338 % ID/g. The “radioactive distribution per unit weight, Small intestine, Average” value ([6]; 30 min. after administration) was 3.964 % ID/g, the “radioactive distribution per unit weight, Spleen, Average” value ([6]; 30 min. after administration) was 0.207 % ID/g and the “radioactive distribution per unit weight, Stomach, Average” value ([6]; 30 min. after administration) was 1.081 % ID/g. For the same compound, the “radioactive distribution per unit weight, Adrenal gland, Average” value ([6]; 60 min. after administration) was 1.775 % ID/g, the “radioactive distribution per unit weight, Blood, Average” value ([6]; 60 min. after administration) was 0.203 % ID/g and the “radioactive distribution per unit weight, Bone, Average” value ([6]; 60 min. after administration) was 0.102 % ID/g. For the same compound, the “radioactive distribution per unit weight, Brain, Average” value ([6]; 60 min. after administration) was 0.111 % ID/g, the “radioactive distribution per unit weight, Heart, Average” value ([6]; 60 min. after administration) was 0.134 % ID/g and the “radioactive distribution per unit weight, Kidney, Average” value ([6]; 60 min. after administration) was 1.630 % ID/g. For the same compound, the “radioactive distribution per unit weight, Large intestine, Average” value ([6]; 60 min. after administration) was 0.099 % ID/g, the “radioactive distribution per unit weight, Liver, Average” value ([6]; 60 min. after administration) was 0.836 % ID/g and the “radioactive distribution per unit weight, Lung, Average” value ([6]; 60 min. after administration) was 0.243 % ID/g. The “radioactive distribution per unit weight, Marrow, Average” value ([6]; 60 min. after administration) was 0.000 % ID/g, the “radioactive distribution per unit weight, Muscle, Average” value ([6]; 60 min. after administration) was 0.062 % ID/g and the “radioactive distribution per unit weight, Pancreas, Average” value ([6]; 60 min. after administration) was 0.247 % ID/g. For the same compound, the “radioactive distribution per unit weight, Small intestine, Average” value ([6]; 60 min. after administration) was 5.924 % ID/g, the “radioactive distribution per unit weight, Spleen, Average” value ([6]; 60 min. after administration) was 0.154 % ID/g and the “radioactive distribution per unit weight, Stomach, Average” value ([6]; 60 min. after administration) was 1.476 % ID/g. For the same compound, the “radioactive distribution per unit weight, Adrenal gland, Average” value ([6]; 180 min. after administration) was 0.754 % ID/g, the “radioactive distribution per unit weight, Blood, Average” value ([6]; 180 min. after administration) was 0.139 % ID/g and the “radioactive distribution per unit weight, Bone, Average” value ([6]; 180 min. after administration) was 0.070 % ID/g. For the same compound, the “radioactive distribution per unit weight, Brain, Average” value ([6]; 180 min. after administration) was 0.027 % ID/g, the “radioactive distribution per unit weight, Heart, Average” value ([6]; 180 min. after administration) was 0.061 % ID/g and the “radioactive distribution per unit weight, Kidney, Average” value ([6]; 180 min. after administration) was 0.643 % ID/g. For the same compound, the “radioactive distribution per unit weight, Large intestine, Average” value ([6]; 180 min. after administration) was 3.294 % ID/g, the “radioactive distribution per unit weight, Liver, Average” value ([6]; 180 min. after administration) was 0.374 % ID/g and the “radioactive distribution per unit weight, Lung, Average” value ([6]; 180 min. after administration) was 0.163 % ID/g. For the same compound, the “radioactive distribution per unit weight, Marrow, Average” value ([6]; 180 min. after administration) was 0.000 % ID/g, the “radioactive distribution per unit weight, Muscle, Average” value ([6]; 180 min. after administration) was 0.027 % ID/g and the “radioactive distribution per unit weight, Pancreas, Average” value ([6]; 180 min. after administration) was 0.088 % ID/g. The “radioactive distribution per unit weight, Small intestine, Average” value ([6]; 180 min. after administration) was 2.870 % ID/g, the “radioactive distribution per unit weight, Spleen, Average” value ([6]; 180 min. after administration) was 0.084 % ID/g and the “radioactive distribution per unit weight, Stomach, Average” value ([6]; 180 min. after administration) was 1.272 % ID/g. For the same compound, the “accumulation of radioactivity in amygdaloid nucleus on the side to which the amyloid suspension was injected” value [2] was “marked accumulation of radioactivity”, the “accumulation of radioactivity in amygdaloid nucleus on the side to which the physiological saline solution was injected” value [3] was “no significant accumulation of radioactivity” and the logPoctanol value [4] was 2.3. The “Radioactive accumulation per unit weight in brain” value ([5]; after 2 min.) was 1.26 % ID/g, the “Radioactive accumulation per unit weight in brain” value ([5]; after 5 min.) was 0.89 % ID/g and the “Radioactive accumulation per unit weight in brain” value ([5]; after 30 min.) was 0.19 % ID/g. The “Radioactive accumulation per unit weight in brain” value ([5]; after 60 min.) was 0.09 % ID/g.
